“And” between values parts separate entries of the source, which are not always exact repeats. Equal entries are not always repeated.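 Five compound concentrations were applied to cells in 96-well plates for 48 hours; endpoints were derived by simple linear interpolation of the resulting dose-response curve. At the GI50, growth is halved. TGI: total growth inhibition.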
Assays:
Assay in all cases: NCI tumour cell line growth inhibition, 48 h
UACC-62 melanoma = test system: UACC-62 melanoma
UO-31 renal = test system: UO-31 renal
MDA-MB-435 = test system: MDA-MB-435
A549 NSCLC = test system: A549 NSCLC
K-562 leukemia = test system: K-562 leukemia
OVCAR-8 ovarian = test system: OVCAR-8 ovarian
SW-620 colon = test system: SW-620 colon
COLO 205 colon = test system: COLO 205 colon
SF-268 CNS = test system: SF-268 CNS
PC-3 prostate = test system: PC-3 prostate

Row | SMILES | TGI (UACC-62 melanoma) | TGI (UO-31 renal) | TGI (MDA-MB-435) | TGI (A549 NSCLC) | TGI (K-562 leukemia) | TGI (OVCAR-8 ovarian) | TGI (SW-620 colon) | TGI (COLO 205 colon) | TGI (SF-268 CNS) | TGI (PC-3 prostate) [µM] | GI50 (UACC-62 melanoma) | GI50 (UO-31 renal) | GI50 (MDA-MB-435) | GI50 (A549 NSCLC) | GI50 (K-562 leukemia) | GI50 (OVCAR-8 ovarian) | GI50 (SW-620 colon) | GI50 (COLO 205 colon) | GI50 (SF-268 CNS) | GI50 (PC-3 prostate)
1 | CC1=CC(=O)c2ccc(C)cc2C1=O | 21.9 µM | 24.6 µM | 5.78 µM | 36.9 µM | > 100 µM | 26.8 µM | 30.4 µM | 31.1 µM | 38.4 µM | 44.1 | – | – | – | – | – | – | – | – | – | –
2 | CC[CH2][Sn]([CH2]CC)([O]C(=O)Cc1ccc(F)cc1)[O][Sn]([CH2]CC)([CH2]CC)[O]C(=O)Cc1ccc(F)cc1 | 0.524 µM | 1.65 µM | 1.61 µM | 4.71 µM | 1.81 µM | 1.41 µM | 0.22 µM | 0.857 µM | 0.606 µM | 2.16 | 0.172 µM | 0.482 µM | 0.393 µM | 1.88 µM | 0.0266 µM | 0.278 µM | 0.0773 µM | 0.266 µM | 0.13 µM | 1 µM
3 | C=C1C(=O)O[C@H]2[C@H]1CC/C(COC(=O)NCc1cc(OC)cc(OC)c1)=C\CC[C@@]1(C)O[C@@H]21 | 2.56 µM | 2.95 µM | 4.11 µM | 7.47 µM | 5.94 µM | 3.95 µM | 3.97 µM | 3.09 µM | 9.9 µM | 8.67 | 0.663 µM | 1.51 µM | 1.99 µM | 2.58 µM | 1.56 µM | 1.6 µM | 1.12 µM | 1.35 µM | 2.46 µM | 2.72 µM
4 | CNC(=O)CN1CCC(Oc2cc3c(Nc4cccc(Cl)c4F)ncnc3cc2OC)CC1 | 32.6 µM and > 10 µM | 15.2 µM and > 10 µM | > 62.4 µM | 22.9 µM and > 10 µM | 45.6 µM and > 10 µM | > 77.3 µM | 32.9 µM and > 10 µM | 29 µM and > 8.92 µM | > 45.2 µM | > 69.1 | 16.3 µM and > 10 µM | 0.177 µM and 0.427 µM | 21.5 µM and > 8.41 µM | 5.66 µM and > 4.69 µM | 16.8 µM and > 10 µM | 8.25 µM and > 5.04 µM | 15.6 µM and > 6.56 µM | 13.9 µM and > 4.66 µM | 8.25 µM and 4.25 µM | 17.5 µM and > 8.3 µM
5 | C[C@@H]1OCC2(CCN(c3cnc(Sc4ccnc(N)c4Cl)c(N)n3)CC2)[C@@H]1N | > 100 µM | > 100 µM | > 100 µM | > 100 µM | > 100 µM | > 100 µM | > 100 µM | > 100 µM | > 100 µM | > 100 | > 100 µM | 0.926 µM | > 100 µM | > 100 µM | 0.397 µM | > 89.5 µM | 88.7 µM | > 100 µM | 27.7 µM | > 100 µM
6 | Nc1nc(-c2cccs2)cs1 | > 100 µM | > 100 µM | > 100 µM | > 100 µM | > 100 µM | > 100 µM | > 100 µM | > 100 µM | > 100 µM | > 100 | – | – | – | – | – | – | – | – | – | –
7 | CC(=O)[O][Bi]([c]1ccccc1)[c]1ccccc1 | 24.1 µM | 7.01 µM | 22.2 µM | 86.7 µM | 14.5 µM | 31 µM | 5.45 µM | 7.27 µM | 29.9 µM | 30.7 | 11.6 µM | 2.08 µM | 7.26 µM | 25.5 µM | 2.75 µM | 16.4 µM | 2.27 µM | 2.84 µM | 14.4 µM | 16.1 µM
8 | Cc1cc2nc(C(Cl)Cl)nc(-c3ccccc3)n2n1 | 56 µM | 21.6 µM | 23.9 µM | 6.45 µM | > 100 µM | > 100 µM | 28 µM | 4.56 µM | 39.4 µM | 37.9 | 8.55 µM | 5.02 µM | 5.84 µM | 2.48 µM | 4.61 µM | 5.06 µM | 3.22 µM | 1.77 µM | 4.76 µM | 4.77 µM
9 | CCN1CCN(c2ccc(Nc3ncc4ccc5ncn(C(C)C)c5c4n3)nc2)CC1 | 0.723 µM | 0.378 µM | 1.61 µM | 10.4 µM | – | 16.3 µM | 0.418 µM | 0.342 µM | 0.47 µM | 1.36 | 0.199 µM | 0.0291 µM | 0.132 µM | 0.0838 µM | 0.132 µM | 0.311 µM | 0.0352 µM | 0.0852 µM | 0.117 µM | 0.107 µM
10 | Cn1c(=N)n[n+]([O-])c2ccccc21 | 2.37 µM and 3.61 µM | 8.83 µM and 17.6 µM | 1.83 µM and 2.39 µM | 23.1 µM and 29.8 µM | 10.8 µM and 5.45 µM | 31.6 µM and > 55.3 µM | > 26.8 µM | 5.3 µM and 5.52 µM | 7.7 µM and 17.6 µM | > 100 | – | – | – | – | – | – | – | – | 2.67 µM and 7.11 µM | –

Source: PubChem BioAssay (NCI)
